From patent US10023836B2, “Medium for yeasts” (YAMAGUCHI UNIVERSITY, priority 2012, dated 2018)

Key:
[1] = system: RAK3599 strain; test: Investigation with AID and aY-AID culture medium (FIGS. 29 to 39); assay type: cell-based, Saccharomyces cerevisiae; conditions: for effect on proliferation when added at high concentrations: up to 1% or up to 0.2500%; for preferred concentration / content: AID or aY-AID culture medium
Protocol: As shown in the following, an investigation was conducted into concentrations of each amino acid and a substitution potential of pantothenic acid for the amino acid in the AID culture medium. A suitable YPD culture medium was used as a control.
Next, the amino acids asparagine, isoleucine, phenylalanine, and valine were each adjusted to a culture medium additive concentration of […], 0.0312%, 0.0625%, 0.1250%, and 0.2500%, and OD600 was measured after 24 hours.
Isoleucine concentration in the aY-AID culture medium was adjusted to 0, 0.01 mg/mL, 0.1 mg/mL, 0.5 mg/mL, and 1 mg/mL, respectively, and proliferation of the RAK3599 strain was investigated.
Phenylalanine concentration in the aY-AID culture medium was adjusted to 0, 0.01, 0.1, 0.5, and 1 mg/mL, respectively, and proliferation of the RAK3599 strain was investigated.
Valine concentration in the aY-AID culture medium was adjusted to 0, 0.01, 0.1, 0.5, and 1 mg/mL, respectively, and proliferation of the RAK3599 strain was investigated.
Serine concentration in the AID culture medium was adjusted to 0, 0.01 mg/mL, 0.1 mg/mL, 0.5 mg/mL, and 1 mg/mL, respectively, and proliferation of the RAK3599 strain was investigated.
Threonine concentration in the AID culture medium was adjusted to 0, 0.01, 0.1, 0.5, and 1 mg/mL, respectively, and proliferation of the RAK3599 strain was investigated.
Asparagine concentration in the AID culture medium was adjusted to 0, 0.01, 0.1, 0.5, and 1 mg/mL, respectively, and proliferation of the RAK3599 strain was investigated.
An investigation was conducted into vitamins contained in the AID culture medium. […]

[2] = system: Saccharomyces cerevisiae RAK3599 strain; test: SynAA culture medium: elimination of single components and inorganic ion concentration; assay type: cell-based; conditions: for essentiality for increasing proliferation: one component of the vitamin mix eliminated from SynAA culture medium; for OD600 for 1/100 solutions after 42 hours: SynAA culture medium
Protocol: (§1) In a case where no special provisions are made, a procedure for a cultivation experiment using the culture medium to be investigated for proliferation was such that a yeast undergoing investigation was pre-cultured in a YPD liquid culture medium at 28° C. for 24 hours, after which the yeast was adjusted such that OD600=20. […] In addition, OD600 was measured every 15 minutes by a spectrophotometer (Cell density meter co8000, WPA). Hereafter, data is represented by graphs for a case using the automatic spectrophotometer; however, these graphs are primarily used to compare the slope of logarithmic growth phase proliferation curves for each culture medium, and because OD600 is measured without dilution, values where OD600=3 to 3.5 or more may be incorrect.
Culture mediums were prepared in which one component each of the components configuring the inorganic ion mix was eliminated from the SynAA culture medium, and OD600 was measured. […] Thereafter, an investigation specifically of inorganic ion concentration was conducted. […] An investigation was conducted using RAK3599 strain (hereafter, simply referred to as “RAK3599 strain”), which is a strain of Saccharomyces cerevisiae not having a particular nutritional requirement. Where no subsequent special provisions were made, proliferation was investigated by performing roller tube culture for an appropriate amount of time at 28° C. and measuring OD600.
MgSO4 concentration in the SynAA culture mediums was adjusted to 0%, 0.0001%, 0.001%, 0.01%, 0.1%, and 1%, respectively, and proliferation of the RAK3599 strain was investigated. […] Next, MgCl2 concentration in the SynAA culture mediums was adjusted to 0.001%, 0.01%, 0.1%, and 1%, respectively, and proliferation of the RAK3599 strain was investigated.
A culture medium was prepared in which one component each of the components configuring the vitamin mix was eliminated from the SynAA culture medium, with the SynAA culture medium as the control, and proliferation of the RAK3599 strain was investigated.

[3] = system: RAK3599 strain; test: Vitamin and FeCl3 concentration in AKD′ culture medium (FIGS. 22 to 28); assay type: cell-based, Saccharomyces cerevisiae
Protocol: as §1
Pyridoxine concentration in the AKD′ culture medium was adjusted to 0, 0.004, 0.04, 0.4, 4, and 40 μg/mL, respectively, and proliferation of the RAK3599 strain was investigated.
Pantothenic acid concentration in the AKD′ culture medium was adjusted to 0, 0.004, 0.04, 0.4, 4, and 40 μg/mL, respectively, and proliferation of the RAK3599 strain was investigated.
Thiamine concentration in the AKD′ culture medium was adjusted to 0, 0.004, 0.04, 0.4, 4, and 40 μg/mL, respectively, and proliferation of the RAK3599 strain was investigated.
Nicotinic acid concentration in the AKD′ culture medium was adjusted to 0, 0.004, 0.04, 0.4, 4, and 40 μg/mL, respectively, and proliferation of the RAK3599 strain was investigated.
Myo-inositol concentration in the AKD′ culture medium was adjusted to 0, 0.02 μg/mL, 0.2 μg/mL, 2 μg/mL, 20 μg/mL, and 200 μg/mL, respectively, and proliferation of the RAK 3599 strain was investigated.
FeCl3 concentration in the AKD′ culture medium was adjusted to 0, 0.002, 0.02, 0.2, 2, and 20 μg/mL, respectively, and proliferation of the RAK3599 strain was investigated.

[4] = aY-AID culture medium, concentration of the substance 0
[5] = aY-AID culture medium, concentration of the substance 0.01 mg/mL
[6] = aY-AID culture medium, concentration of the substance 0.1 mg/mL
[7] = aY-AID culture medium, concentration of the substance 0.5 mg/mL
[8] = aY-AID culture medium, concentration of the substance 1 mg/mL

## NCCC(=O)O [β-alanine]
[1]; AID culture medium (FIG. 39A)
  substitution potential of pantothenic acid: confirmed to be substituted with pantothenic acid
[1]; AID culture medium (FIG. 39B)
  concentration capable of substitution with pantothenic acid: ≥ 0.4 µg/mL

## CC[C@H](C)[C@H](N)C(=O)O [Isoleucine, L-Isoleucine]
[1]; AID culture medium
  effect on proliferation when added at high concentrations: a positive influence was imparted to proliferation
[1]
  preferred concentration / content: around 1 g/L
[1]; [4]
  OD600 after 24 hours: 16
[1]; [5]
  OD600 after 24 hours: 17
[1]; [6]
  OD600 after 24 hours: 16
[1]; [7]
  OD600 after 24 hours: 17
[1]; [8]
  OD600 after 24 hours: 19

## Nc1nc2ncc(CNc3ccc(C(=O)N[C@@H](CCC(=O)O)C(=O)O)cc3)nc2c(=O)[nH]1 [folic acid]
[2]
  essentiality for increasing proliferation: not be essential components

## CC(=O)N[C@@H](Cc1ccc(O)cc1)C(=O)O [acetyl tyrosine, N-acetyl tyrosine]
[1]; AID culture medium, acetyl tyrosine 0 mg/mL
  OD600 after 24 hours: 13
[1]; AID culture medium, acetyl tyrosine 0.01 mg/mL
  OD600 after 24 hours: 14
[1]; AID culture medium, acetyl tyrosine 0.1 mg/mL
  OD600 after 24 hours: 15
[1]; AID culture medium, acetyl tyrosine 0.5 mg/mL
  OD600 after 24 hours: 14
[1]; AID culture medium, acetyl tyrosine 1 mg/mL
  OD600 after 24 hours: 15
[1]; AID culture medium, acetyl tyrosine 2 mg/mL
  OD600 after 24 hours: 18
[1]
  preferred concentration / content: about 1 g/L

## CC(C)(CO)[C@@H](O)C(=O)NCCC(=O)O [pantothenic acid]
[2]
  essentiality for increasing proliferation: essential components
[3]; AKD′ culture medium
  concentration at which proliferation was inhibited: 40 µg/mL
  preferred concentration: around 4000 μg/L
[3]; AKD′ culture medium without the substance
  proliferation at a content of 0: no proliferation whatsoever

## CC(C)[C@H](N)C(=O)O [Valine, L-VALINE]
[1]; AID culture medium
  effect on proliferation when added at high concentrations: a positive influence was imparted to proliferation
[1]
  preferred concentration / content: around 1 g/L
[1]; [4]
  OD600 after 24 hours: 16
[1]; [5]
  OD600 after 24 hours: 15
[1]; [6]
  OD600 after 24 hours: 15
[1]; [7]
  OD600 after 24 hours: 16
[1]; [8]
  OD600 after 24 hours: 16

## C[C@H](N)C(=O)O [Alanine, L-Alanine]
[1]; AID culture medium
  effect on proliferation when added at high concentrations: a positive influence was imparted to proliferation
[1]; aY-AID culture medium
  content at which the slope of the proliferation curve is greatest: around 1 mg/mL
[1]; aY-AID culture medium, alanine 0 mg/mL
  OD600 after 24 hours: 17
[1]; aY-AID culture medium, alanine 0.1 mg/mL
  OD600 after 24 hours: 18
[1]; aY-AID culture medium, alanine 1 mg/mL
  OD600 after 24 hours: 18
[1]; aY-AID culture medium, alanine 5 mg/mL
  OD600 after 24 hours: 17
[1]; aY-AID culture medium, alanine 10 mg/mL
  OD600 after 24 hours: 18

## NC(=O)C[C@H](N)C(=O)O.O [Asparagine, L-Asparagine monohydrate]
[1]; AID culture medium, asparagine 0 mg/mL
  OD600 after 24 hours: 15
[1]; AID culture medium, asparagine 0.01 mg/mL
  OD600 after 24 hours: 16
[1]; AID culture medium, asparagine 0.1 mg/mL
  OD600 after 24 hours: 16
[1]; AID culture medium, asparagine 0.5 mg/mL
  OD600 after 24 hours: 17
[1]; AID culture medium, asparagine 1 mg/mL
  OD600 after 24 hours: 16
[1]; AID culture medium
  effect on proliferation when added at high concentrations: proliferation was confirmed to be inhibited
[1]
  preferred concentration / content: around 0.5 g/L

## O.O.O.O.O.O.O.O=S(=O)([O-])[O-].[Mg+2] [MgSO4, magnesium sulfate-heptahydrate]
[2]; concentration of the substance adjusted to 0%
  OD600 for 1/100 solutions after 42 hours: 0.02
[2]; concentration of the substance adjusted to 0.0001%
  OD600 for 1/100 solutions after 42 hours: 0.04
[2]; concentration of the substance adjusted to 0.001%
  OD600 for 1/100 solutions after 42 hours: 0.09
[2]; concentration of the substance adjusted to 0.01%
  OD600 for 1/100 solutions after 42 hours: 0.12
[2]; concentration of the substance adjusted to 0.1%
  OD600 for 1/100 solutions after 42 hours: 0.13
[2]; concentration of the substance adjusted to 1%
  OD600 for 1/100 solutions after 42 hours: 0.13
[2]; one component of the inorganic ion mix eliminated from SynAA culture medium
  proliferation when the component is not added: extremely low proliferation

## O[C@H]1[C@H](O)[C@@H](O)[C@H](O)[C@@H](O)[C@H]1O [inositol, myo-inositol]
[3]; AKD′ culture medium, myo-inositol 0 to 200 μg/mL
  proliferation versus inositol content: Proliferation increased in proportion to an increase in inositol content
[3]; inositol added at 10%
  proliferation compared with AKD′: below that of AKD′

## N[C@@H](Cc1ccccc1)C(=O)O [Phenylalanine, L-Phenylalanine]
[1]; AID culture medium
  effect on proliferation when added at high concentrations: a positive influence was imparted to proliferation
[1]
  preferred concentration / content: around 1 g/L
[1]; [4]
  OD600 after 24 hours: 17
[1]; [5]
  OD600 after 24 hours: 17
[1]; [6]
  OD600 after 24 hours: 19
[1]; [7]
  OD600 after 24 hours: 19
[1]; [8]
  OD600 after 24 hours: 19
